The values below come from BindingDB's records for PubMed 9463480 (F. Hoffmann-La Roche, 1998).

Molecules are shown by their SMILES.

Chain of Metabotropic glutamate receptor 2 (Q14416 whole entry): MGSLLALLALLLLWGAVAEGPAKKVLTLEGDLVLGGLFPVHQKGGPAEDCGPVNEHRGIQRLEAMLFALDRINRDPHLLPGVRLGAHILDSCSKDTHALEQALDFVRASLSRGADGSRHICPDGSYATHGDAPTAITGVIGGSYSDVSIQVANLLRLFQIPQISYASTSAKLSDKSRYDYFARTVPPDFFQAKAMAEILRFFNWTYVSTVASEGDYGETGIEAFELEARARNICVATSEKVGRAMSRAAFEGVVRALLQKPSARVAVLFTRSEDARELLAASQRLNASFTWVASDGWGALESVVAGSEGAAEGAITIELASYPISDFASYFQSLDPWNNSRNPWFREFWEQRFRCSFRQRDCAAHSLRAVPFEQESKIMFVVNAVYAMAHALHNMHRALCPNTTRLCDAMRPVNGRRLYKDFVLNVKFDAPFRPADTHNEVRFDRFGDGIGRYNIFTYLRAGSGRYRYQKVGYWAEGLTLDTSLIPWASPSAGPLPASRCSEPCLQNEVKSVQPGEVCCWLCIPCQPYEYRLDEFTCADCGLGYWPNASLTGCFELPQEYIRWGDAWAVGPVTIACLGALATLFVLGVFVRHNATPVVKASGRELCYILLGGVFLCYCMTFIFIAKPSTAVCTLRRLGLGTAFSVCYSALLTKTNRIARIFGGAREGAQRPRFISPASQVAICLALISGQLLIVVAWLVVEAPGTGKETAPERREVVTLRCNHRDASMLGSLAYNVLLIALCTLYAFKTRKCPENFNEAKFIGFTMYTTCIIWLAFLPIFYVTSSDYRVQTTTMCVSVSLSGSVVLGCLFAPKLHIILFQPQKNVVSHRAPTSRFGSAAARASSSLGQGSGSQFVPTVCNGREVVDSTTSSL

This assay concerns the target Metabotropic glutamate receptor 2 (Homo sapiens, UniProt Q14416).
`C[C@@](N)(C(=O)O)c1ccc(C(=O)O)cc1` (racemic): the inhibitory constant (Ki) is above 10000 nM.
On to `N[C@H](CP(=O)(O)O)C(=O)O` [CAS_23052-80-4], for which the Ki was above 10000 nM.
`N[C@H](C(=O)O)C1[C@@H](C(=O)O)[C@@H]1C(=O)O` (some centres undefined) [DCG-IV] yielded a Ki of 60 nM. In other words, the double-digit nanomolar range.
As to `N[C@H](C(=O)O)[C@H]1C[C@H]1C(=O)O` [L-CCG-IV], the inhibition constant (Ki) was 70 nM.
Under `NC(Cn1cnc2c(=O)[nH]c(=O)[nH]c21)(C(=O)O)C1CC1C(=O)O` (centres undefined) [CAS_5311260] stands 10 nM.
Consider `C[C@](N)(C(=O)O)C1C[C@@H]1C(=O)O` (some centres undefined) [MCCG-I], for which the inhibitory constant (Ki) was above 10000 nM.
Under `N[C@@H](CCP(=O)(O)O)C(=O)O` stands above 10000 nM; under `N[C@@]1(C(=O)O)CC[C@H](C(=O)O)C1` [1S, 3R-ACPD], 2000 nM.
Turning to `N[C@@H](Cn1oc(=O)[nH]c1=O)C(=O)O` [2-amino-3-(3,5-dioxo[1,2,4]oxadiazolidin-2-yl)propionic acid], the inhibition constant (Ki) is above 10000 nM.

The term Ki denotes the equilibrium dissociation constant of an inhibitor or competing ligand from its target. Read a low Ki as higher affinity.
